The test system of the assay is A375 human melanoma cells. As to the kind of experiment: A375 human melanoma xenograft in athymic nude mice: tumor volume and survival. Type of assay: in vivo. Background: A xenograft is tissue or cells of one species grown in another, often human tumour cells in immunodeficient mice.

Source text: Data is represented as tumor volume in mm^3.
Survival was again assessed at day 40.

For the substance bevacizumab, under “12 mg/kg BEV alone, 1.2 mg/kg BEV pretreatment before AB160”, the “therapeutic effect in the experiment (in words)” value is listed as “not therapeutic”. Moreover, the “Percent Alive on day 15” value (day 15 post treatment, 12 mg/kg BEV, 30 mg/kg ABX, AB160, or 1.2 mg/kg BEV 24 hr before AB160) was determined as 0%. Further, the median survival (survival assessed at day 40) is reported as 7 days.

The record behind these values is patent US11660339B2, “Methods of treating cancer using compositions of antibodies and carrier proteins with antibody pretreatment” (Mayo Foundation for Medical Education and Research, priority 2015, dated 2023).
